According to patent publication US20260085315A1, “POLYNUCLEOTIDE COMPOSITIONS AND METHODS FOR TREATMENT OF CANCER” (APTAH BIO, INC., priority 2023, published 2026):
d = 2'-deoxy (DNA); m = 2'-O-methyl

Experiments:
MCF-7 cell line [1] = assay: MTT cytotoxicity assay on human cancer cell panel (Example 2); type: cell-based; details: 24, 48, 72, 96 hours; 0.03-30 μM; 0.1% FBS
Description: (§1) Cell lines were maintained in growth medium with 10% of Fetal Bovine Serum (FBS) until the time of the experiments. Cells were sub-cultured by trypsinization and splitting the cell suspension into fresh flasks and supplementing with fresh culture medium. To perform the assay, the cells were trypsinized, neutralized with complete medium (10% FBS), centrifuged, counted with assistance of a hemocytometer, and plated with the respective media with 10% FBS. Cell lines were plated at a density of 1×10^4 cells per well, other than the SH-SY5Y cell line which was plated at a density of 2.5×10^4. The preparation of the different experimental groups was done with 0.1% FBS (U87MG, MCF-7, SH-SY5Y and 786-O) and 1% FBS (PC-3). The untreated cells were used as negative control (medium only). After 24, 48, 72 and 96 hours of incubation, the effect of ASMO1 and controls on cytotoxicity of cells was determined by MTT assay.
(§2) Briefly, plates were taken out and 20 μl of 5 mg/ml of MTT 3-(4,5-dimethythiazol-2-yl)-2,5-diphenyl tetrazolium bromide solution was added to all the wells. Cells were incubated for 3 h at 37° C. After this period, supernatant was aspirated and 100 μl of DMSO was added to each well to dissolve formazan crystals. The absorbance of each well was then read at 540 nm using Synergy HT microplate reader.
(§3) Cells were plated and treated with 7 different concentrations (0.03, 0.1, 0.3, 1, 3, 10 and 30 μM) of APT20TTMG with medium (0.1% FBS). MTT assay was performed in 4 distinct times and graphs are represented as absorbance (540 nm). (A) 24 hours of incubation. (B) 48 hours of incubation. (C) 72 hours of incubation. (D) 96 hours of incubation.

U-87MG cell line = assay: as above; type: cell-based; details: 0.03-30 μM, 0.1% FBS
Description: as §1, §2, §3

MCF-7 cell line [2] = assay: MTT cell viability assay (Example 3); type: cell-based, Human; details: 48 hours, 2% FBS
Description: MTT assay was carried out to assess the cell viability of MCF-7 cell line after treatment with ASMO APT20TTMG, and, therefore, infer the ASMO1 cytotoxicity. The tetrazolium salt reduction (MTT) method evaluates cell viability by assessing mitochondrial integrity. Viable cells are able to reduce MTT reagent, which is yellow and water-soluble, into an insoluble purple formazan product. Formazan quantification could be measured by a spectrophotometer absorbance at 560 nm. The quantity of formazan is directly proportional to the number of viable cells in the culture.
For this assay, MCF-7 cells were plated in 96-well plates at a density of 1×10^4 cells/well and cultured for 24 hours for adhesion and, subsequently incubated with eight concentrations (0.0078-1 μM) of APT20TTMG (prepared in medium with 2% FBS) for the period of 48 hours. Then, cells were washed with 150 μL/well of PBS and incubated with 100 μL/well of MTT solution prepared in culture medium, at a concentration of 0.5 mg/mL for 3 hours in the incubator. […] Finally, the absorbance of the samples was measured in a plate reader spectrophotometer (Multiskan Spectrum, Thermo Scientific, Waltham, MA, USA), at a wavelength of 560 nm. The absorbance of each sample was used to determine the cell viability after each treatment condition.

cAMP = assay: ELISA of tumor tissue homogenate; type: in vivo, U-87MG xenograft in animals; details: vs negative control; lower total expression
Description: For the assessment of biomarkers such as cAMP, AKT, GFAP, and TAU by ELISA, the U-87MG tumor tissues dissected out from the animals were homogenized according to kit instructions. The homogenates were centrifugated, and the supernatant was collected and immunoassayed with the Human AKT Protein ELISA Kit (MyByoSouce), cyclic AMP Complete Enzyme-linked Immunosorbent Assay (ELISA) kit (MyByoSouce), Human Glial Fibrillary Acidic Protein (GFAP) ELISA Kit (Cusabio), and Human TAU Protein (TAU) ELISA Kit (MyByoSouce) for the quantitative determination of cAMP, AKT, GFAP, and TAU proteins, respectively.
As shown in FIG. 37A-D, the graphs present the individual values of protein quantification of tumors from 6 animals. (A) cAMP, (B) […], (C) GFAP, and (D) TAU.

Substance: APT20TTMG: engineered polynucleotide ASMO1, 24 nt, SEQ ID NO: 3 gtccactaacctttcaggccagcg; targeting moieties 5′-GTCCA-3′ and 5′-CG-3′, U1 snRNP recruiting moiety (GTCCACTAACCTTTCAGGCCAGCG; sugars from the 5' end m5 d14 m5, all phosphorothioate, methylation of C and T or U not given here)
- cytotoxic or cytostatic effect (MTT) (MCF-7 cell line [1]): does not exert a cytotoxic or cytostatic effect
- cell viability (MTT, absorbance 540 nm) (U-87MG cell line; 72 and 96 hours): like those of the vehicle group
- cell viability (MTT, absorbance 540 nm) (U-87MG cell line; 24 hours, vs negative control and vehicle): trend of reduction in cell viability
- cell viability (MTT, absorbance 540 nm) (U-87MG cell line; 48 hours): reduction in absorbance values
- cell viability (MTT) (MCF-7 cell line [2]; 0.5 μM): 86.4±1.6%
- cell viability (MTT) (MCF-7 cell line [2]; 1 μM): 85±2.7%
- cAMP in tumor tissue (ELISA) (cAMP): no statistical difference was observed
